Assays:
Assay type in all cases: biochemical
HDAC1 = biological target: T1, HDAC1 (Homo sapiens, UniProt Q13547); experiment: HDAC1 enzyme inhibition assay (single point and 10-dose IC50, Reaction Biology)
T1 construct: purchased Reaction Biology corporation (contract assay)
Method: (§1) All IC50 measurements we performed by Reaction Biology corporation. Compounds were tested in
(§2) dilution starting at 1 uM. […]
(§3) (RHK(Ac)K(Ac)AMC). IC50 values were calculated using the GraphPad Prism 4 program based on a
(§4) sigmoidal dose-response equation. […]

HDAC6 = biological target: T2, HDAC6 (Homo sapiens, UniProt Q9UBN7); experiment: HDAC6 enzyme inhibition assay (single point and 10-dose IC50, Reaction Biology)
T2 construct: purchased Reaction Biology corporation (contract assay)
T2 sequence (Q9UBN7 1-1215): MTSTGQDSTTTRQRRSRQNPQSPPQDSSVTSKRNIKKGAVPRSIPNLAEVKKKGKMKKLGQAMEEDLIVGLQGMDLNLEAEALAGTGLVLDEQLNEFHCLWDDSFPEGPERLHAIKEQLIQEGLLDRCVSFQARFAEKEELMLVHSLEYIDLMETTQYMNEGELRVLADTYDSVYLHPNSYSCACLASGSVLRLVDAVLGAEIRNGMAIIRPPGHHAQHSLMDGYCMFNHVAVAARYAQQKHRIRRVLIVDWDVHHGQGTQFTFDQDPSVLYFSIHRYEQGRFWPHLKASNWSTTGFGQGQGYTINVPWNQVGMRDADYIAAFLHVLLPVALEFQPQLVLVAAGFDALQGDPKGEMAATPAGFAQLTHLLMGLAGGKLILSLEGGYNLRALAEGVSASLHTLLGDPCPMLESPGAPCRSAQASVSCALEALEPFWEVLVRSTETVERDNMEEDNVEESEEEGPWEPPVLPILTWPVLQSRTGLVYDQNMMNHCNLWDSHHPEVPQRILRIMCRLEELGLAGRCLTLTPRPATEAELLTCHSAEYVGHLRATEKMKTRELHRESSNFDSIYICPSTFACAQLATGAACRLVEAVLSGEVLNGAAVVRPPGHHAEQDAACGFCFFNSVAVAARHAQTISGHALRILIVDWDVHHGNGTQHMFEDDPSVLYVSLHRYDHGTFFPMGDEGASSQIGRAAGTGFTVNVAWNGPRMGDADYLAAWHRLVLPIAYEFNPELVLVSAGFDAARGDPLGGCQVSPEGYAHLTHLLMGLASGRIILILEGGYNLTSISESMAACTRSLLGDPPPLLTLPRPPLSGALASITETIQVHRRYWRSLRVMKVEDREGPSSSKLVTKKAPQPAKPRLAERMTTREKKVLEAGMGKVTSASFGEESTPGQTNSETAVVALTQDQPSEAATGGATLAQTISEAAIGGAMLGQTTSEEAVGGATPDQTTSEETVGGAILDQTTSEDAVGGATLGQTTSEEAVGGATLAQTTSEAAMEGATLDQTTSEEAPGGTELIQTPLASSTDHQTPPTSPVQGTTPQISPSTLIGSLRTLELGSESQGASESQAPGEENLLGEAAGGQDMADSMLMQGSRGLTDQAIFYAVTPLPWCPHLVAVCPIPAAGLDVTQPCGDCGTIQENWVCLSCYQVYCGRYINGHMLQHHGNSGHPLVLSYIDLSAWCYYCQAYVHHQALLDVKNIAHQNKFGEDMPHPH
Method: (§5) Against HDAC6, inhibition was determined using 0.01 µM of the inhibitor.
as §1, §2, §3, §4

HDAC8 = biological target: T3, HDAC8 (Homo sapiens, UniProt Q9BY41); experiment: HDAC8 enzyme inhibition assay (single point and 10-dose IC50, Reaction Biology)
T3 construct: purchased Reaction Biology corporation (contract assay)
T3 sequence (Q9BY41 1-377): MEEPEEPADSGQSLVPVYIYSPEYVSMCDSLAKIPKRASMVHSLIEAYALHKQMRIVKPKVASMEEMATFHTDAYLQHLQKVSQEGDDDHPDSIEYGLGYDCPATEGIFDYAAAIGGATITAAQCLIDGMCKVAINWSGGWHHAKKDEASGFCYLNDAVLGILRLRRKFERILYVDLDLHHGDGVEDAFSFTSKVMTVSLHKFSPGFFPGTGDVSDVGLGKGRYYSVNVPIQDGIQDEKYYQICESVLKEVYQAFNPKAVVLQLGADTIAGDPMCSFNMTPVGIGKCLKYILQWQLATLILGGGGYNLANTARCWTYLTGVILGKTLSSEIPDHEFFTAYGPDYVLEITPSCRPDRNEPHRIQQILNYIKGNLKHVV
Method: as §5, §1, §2, §3, §4

[1] = average of two independent measurements
[2] = single point, inhibitor 1.0 μM, average of two measurements, ±2%

T1 sequence (Q13547 whole entry): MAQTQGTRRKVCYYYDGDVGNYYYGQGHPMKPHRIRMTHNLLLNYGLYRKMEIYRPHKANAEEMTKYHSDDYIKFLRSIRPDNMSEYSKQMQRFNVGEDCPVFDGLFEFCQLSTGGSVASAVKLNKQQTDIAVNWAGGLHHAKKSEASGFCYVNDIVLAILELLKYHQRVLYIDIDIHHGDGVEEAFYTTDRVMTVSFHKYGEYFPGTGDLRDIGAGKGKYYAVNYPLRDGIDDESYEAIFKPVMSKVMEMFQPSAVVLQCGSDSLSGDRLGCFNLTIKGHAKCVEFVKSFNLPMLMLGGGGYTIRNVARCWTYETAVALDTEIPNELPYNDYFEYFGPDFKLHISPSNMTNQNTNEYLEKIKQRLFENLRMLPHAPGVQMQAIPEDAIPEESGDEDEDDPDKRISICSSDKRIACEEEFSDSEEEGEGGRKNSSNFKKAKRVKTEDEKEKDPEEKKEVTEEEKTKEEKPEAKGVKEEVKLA

O=C(CCCCCN1C(=O)c2cccc3cc(NC(=O)c4ccccc4)cc(c23)C1=O)NO [KNH019]
IC50 (HDAC1; [1]): 91 ± 6 nM | Selectivity factor (SF) = HDAC1 IC50/HDAC6 IC50 (HDAC1; selectivity for HDAC6 over HDAC1): 91 | HDAC1 average enzyme isoform activity (percentage of full enzyme activity) (HDAC1; [2]): 36.3% | IC50 (HDAC6; [1]): 1 ± 0.005 nM | HDAC6 average enzyme isoform activity (percentage of full enzyme activity) (HDAC6; single point, inhibitor 0.01 μM, average of two measurements, ±2%): 20.4% | IC50 (HDAC8; [1]): 2950 ± 460 nM | Selectivity factor (SF) HDAC8 against HDAC6 (HDAC8; selectivity for HDAC6 over HDAC8): 2950 | HDAC8 average enzyme isoform activity (percentage of full enzyme activity) (HDAC8; [2]): 69.3%

Source: publication PMC8232238 (Cells, 2021)
